These results are taken from ChEMBL document CHEMBL1146491, “Seco[D-Asp3]microcystin-RR and [D-Asp3,D-Glu(OMe)6]microcystin-RR, two new microcystins from a toxic water bloom of the cyanobacterium planktothrixrubescens” (J Nat Prod, 2004).

The nature of the assay: Inhibition of recombinant PP1.

For the molecule `C=C1C(=O)N[C@H](C)C(=O)N[C@@H](CCCNC(=N)N)C(=O)N[C@@H](C(=O)O)CC(=O)N[C@@H](CCCNC(=N)N)C(=O)N[C@@H](/C=C/C(C)=C/[C@H](C)[C@H](Cc2ccccc2)OC)[C@H](C)C(=O)N[C@@H](C(=O)O)CCC(=O)N1C`, the IC30 is 7.8 µM.

As for `CNC(=O)CC[C@@H](NC(=O)[C@@H](C)[C@H](/C=C/C(C)=C/[C@H](C)[C@H](Cc1ccccc1)OC)NC(=O)[C@H](CCCNC(=N)N)NC(=O)C[C@@H](NC(=O)[C@H](CCCNC(=N)N)NC(=O)[C@@H](C)NC(=O)C(C)=O)C(=O)O)C(=O)O`, the concentration for an effect of 30% (IC30) worked out at 0.8 µM.

As usually defined, the IC30 is the point of the concentration-response curve where the effect stands at 30%.
